Experimental data published in US20140088192A1, “SUBCUTANEOUSLY INFUSIBLE LEVODOPA PRODRUG COMPOSITIONS AND METHODS OF INFUSION” (SynAgile Corporation, priority 2010, published 2014).

Key:
[1] = Estimated / projected shelf life and operational life (time to LD saturation); conditions: for time remaining precipitate free: after 18 months refrigerated storage
Description: To minimize hydrolysis and LD precipitation, the LDE salt can be stored in its dry solid form, and dissolved in water or in an aqueous solution prior to use. Alternatively and preferably, the LDE salt can be dissolved, and stored as an aqueous solution at a pH and at a temperature where the rate of hydrolysis is slow. […] The operational life, meaning the life of the infused solution, is similarly pH dependent. The pH of a subcutaneously infused solution can be generally greater than about 4.0. […] To extend the shelf life, the solution may be optionally stored at a temperature below about 25° C., for example it may be refrigerated at about 5±3° C.
After flushing with nitrogen, the solution was kept for 7 days at 23±2° C. in a vial sealed with a grey elastomeric, substantially oxygen impermeable septum. […] An operational life of 4 days suffices for infusion.
After flushing with nitrogen, the solution was kept in a vial sealed with a grey, elastomeric oxygen impermeable septum.
After flushing with nitrogen, the solution was kept in a vial sealed with a grey elastomeric, oxygen impermeable septum.

[2] = Hydrolysis of LDEE salts to LD in aqueous solution, monitored by HPLC; format: physicochemical
[3] = Achievable concentration and density of concentrated LDEE salt solutions
Protocol: The pH was adjusted to 4.60 by adding 160 mg of sodium acetate.

volunteer = test: Intramuscular / subcutaneous infusion of LDEE.HCl in human volunteers, local tolerability; format: in vivo; conditions: s.c. abdomen, 0.24 mL of 2.3 M pH 4.5 over about 90 min in 8 boluses

In the case of `CCOC(=O)[C@@H](N)Cc1ccc(O)c(O)c1.Cl` [LDEE.HCl, LDEE Hydrochloride], the “Estimated pH 2.3 storage life at 4° C.” value ([1]; about 2.0 M LDEE.HCl solution) is reported as 50 months, the “Estimated pH 2.3 storage life at 25° C.” value ([1]; about 2.0 M LDEE.HCl solution) is reported as 2 months and the “Estimated pH 4.5 operational life at 30° C.” value ([1]; about 2.0 M LDEE.HCl solution) is reported as 4 days. For the same molecule, the “Estimated pH 4.5 operational life at 37° C.” value ([1]; about 2.0 M LDEE.HCl solution) was 2 days, the operational life ([1]; about 2.7 M, about pH 4.49, 40° C.) was greater than 48 h and the residual operational life ([1]; after 18 months at 4° C., then operational ambient temperature) was “more than 3 days”. The “time remaining precipitate free” value ([1]; pH raised to about 4.2±0.3, 30° C.) was “more than 3 days”, the “time remaining precipitate free” value ([1]; pH raised to about 4.2±0.3, 37° C.) was “more than 2 days” and the residual operational life ([1]; after one year at 4° C., then 23° C. ambient) was “greater than 4 days”. The “projected time free of LD precipitate” value ([1]; refrigerated pH 4.0 solution, 2.4 M) was “about 50 weeks”, the “LD/LDEE HPLC peak ratio” value ([2]; 0.48M LDEE•HCl, 40° C., 0 hrs, initial pH 4.2) was 0.1292 and the “LD/LDEE HPLC peak ratio” value ([2]; 0.48M LDEE•HCl, 40° C., 0 hrs, initial pH 4.4) was 0.1309. For the same molecule, the “LD/LDEE HPLC peak ratio” value ([2]; 0.48M LDEE•HCl, 40° C., 0 hrs, initial pH 4.6) was 0.133, the “LD/LDEE HPLC peak ratio” value ([2]; 0.48M LDEE•HCl, 40° C., 0 hrs, initial pH 4.8) was 0.1352 and the “LD/LDEE HPLC peak ratio” value ([2]; 0.48M LDEE•HCl, 40° C., 0 hrs, initial pH 5) was 0.1418. For the same molecule, the “LD/LDEE HPLC peak ratio” value ([2]; 0.48M LDEE•HCl, 40° C., 0 hrs, initial pH 5.3) was 0.1547, the “LD/LDEE HPLC peak ratio” value ([2]; 0.48M LDEE•HCl, 40° C., 0 hrs, initial pH 5.6) was 0.1902 and the “LD/LDEE HPLC peak ratio” value ([2]; 0.48M LDEE•HCl, 40° C., 2 hrs, initial pH 4.2) was 0.2171. For the same molecule, the “LD/LDEE HPLC peak ratio” value ([2]; 0.48M LDEE•HCl, 40° C., 2 hrs, initial pH 4.4) was 0.2636, the “LD/LDEE HPLC peak ratio” value ([2]; 0.48M LDEE•HCl, 40° C., 2 hrs, initial pH 4.6) was 0.2998 and the “LD/LDEE HPLC peak ratio” value ([2]; 0.48M LDEE•HCl, 40° C., 2 hrs, initial pH 4.8) was 0.3758. For the same molecule, the “LD/LDEE HPLC peak ratio” value ([2]; 0.48M LDEE•HCl, 40° C., 2 hrs, initial pH 5) was 0.5202, the “LD/LDEE HPLC peak ratio” value ([2]; 0.48M LDEE•HCl, 40° C., 2 hrs, initial pH 5.3) was 0.8609 and the “LD/LDEE HPLC peak ratio” value ([2]; 0.48M LDEE•HCl, 40° C., 2 hrs, initial pH 5.6) was 1.4028. For the same molecule, the “LD/LDEE HPLC peak ratio” value ([2]; 0.48M LDEE•HCl, 40° C., 6 hrs, initial pH 4.2) was 0.3079, the “LD/LDEE HPLC peak ratio” value ([2]; 0.48M LDEE•HCl, 40° C., 6 hrs, initial pH 4.4) was 0.3994 and the “LD/LDEE HPLC peak ratio” value ([2]; 0.48M LDEE•HCl, 40° C., 6 hrs, initial pH 4.6) was 0.4804. The “LD/LDEE HPLC peak ratio” value ([2]; 0.48M LDEE•HCl, 40° C., 6 hrs, initial pH 4.8) was 0.6546, the “LD/LDEE HPLC peak ratio” value ([2]; 0.48M LDEE•HCl, 40° C., 6 hrs, initial pH 5) was 0.9805 and the “LD/LDEE HPLC peak ratio” value ([2]; 0.48M LDEE•HCl, 40° C., 6 hrs, initial pH 5.3) was 1.7239. For the same molecule, the “LD/LDEE HPLC peak ratio” value ([2]; 0.48M LDEE•HCl, 40° C., 6 hrs, initial pH 5.6) was 2.8727, the “LD/LDEE HPLC peak ratio” value ([2]; 0.48M LDEE•HCl, 40° C., 24 hrs, initial pH 4.2) was 0.8294 and the “LD/LDEE HPLC peak ratio” value ([2]; 0.48M LDEE•HCl, 40° C., 24 hrs, initial pH 4.4) was 1.1405. The “LD/LDEE HPLC peak ratio” value ([2]; 0.48M LDEE•HCl, 40° C., 24 hrs, initial pH 4.6) was 1.415, the “LD/LDEE HPLC peak ratio” value ([2]; 0.48M LDEE•HCl, 40° C., 24 hrs, initial pH 4.8) was 1.9804 and the “LD/LDEE HPLC peak ratio” value ([2]; 0.48M LDEE•HCl, 40° C., 24 hrs, initial pH 5) was 3.0727. The “LD/LDEE HPLC peak ratio” value ([2]; 0.48M LDEE•HCl, 40° C., 24 hrs, initial pH 5.3) was 5.6312, the “LD/LDEE HPLC peak ratio” value ([2]; 0.48M LDEE•HCl, 40° C., 24 hrs, initial pH 5.6) was 9.6563 and the “LD/LDEE HPLC peak ratio” value ([2]; 0.95M LDEE•HCl, 40° C., 0 hrs, initial pH 4.2) was 0.1238. For the same molecule, the “LD/LDEE HPLC peak ratio” value ([2]; 0.95M LDEE•HCl, 40° C., 0 hrs, initial pH 4.4) was 0.1252, the “LD/LDEE HPLC peak ratio” value ([2]; 0.95M LDEE•HCl, 40° C., 0 hrs, initial pH 4.6) was 0.128 and the “LD/LDEE HPLC peak ratio” value ([2]; 0.95M LDEE•HCl, 40° C., 0 hrs, initial pH 4.8) was 0.1354. For the same molecule, the “LD/LDEE HPLC peak ratio” value ([2]; 0.95M LDEE•HCl, 40° C., 0 hrs, initial pH 5) was 0.1467, the “LD/LDEE HPLC peak ratio” value ([2]; 0.95M LDEE•HCl, 40° C., 0 hrs, initial pH 5.3) was 0.1628 and the “LD/LDEE HPLC peak ratio” value ([2]; 0.95M LDEE•HCl, 40° C., 0 hrs, initial pH 5.6) was 0.1909. For the same molecule, the “LD/LDEE HPLC peak ratio” value ([2]; 0.95M LDEE•HCl, 40° C., 2 hrs, initial pH 4.2) was 0.2073, the “LD/LDEE HPLC peak ratio” value ([2]; 0.95M LDEE•HCl, 40° C., 2 hrs, initial pH 4.4) was 0.2404 and the “LD/LDEE HPLC peak ratio” value ([2]; 0.95M LDEE•HCl, 40° C., 2 hrs, initial pH 4.6) was 0.2994. For the same molecule, the “LD/LDEE HPLC peak ratio” value ([2]; 0.95M LDEE•HCl, 40° C., 2 hrs, initial pH 4.8) was 0.3995, the “LD/LDEE HPLC peak ratio” value ([2]; 0.95M LDEE•HCl, 40° C., 2 hrs, initial pH 5) was 0.5443 and the “LD/LDEE HPLC peak ratio” value ([2]; 0.95M LDEE•HCl, 40° C., 2 hrs, initial pH 5.3) was 0.8361. For the same molecule, the “LD/LDEE HPLC peak ratio” value ([2]; 0.95M LDEE•HCl, 40° C., 2 hrs, initial pH 5.6) was 1.3007, the “LD/LDEE HPLC peak ratio” value ([2]; 0.95M LDEE•HCl, 40° C., 6 hrs, initial pH 4.2) was 0.2872 and the “LD/LDEE HPLC peak ratio” value ([2]; 0.95M LDEE•HCl, 40° C., 6 hrs, initial pH 4.4) was 0.3618. The “LD/LDEE HPLC peak ratio” value ([2]; 0.95M LDEE•HCl, 40° C., 6 hrs, initial pH 4.6) was 0.4867, the “LD/LDEE HPLC peak ratio” value ([2]; 0.95M LDEE•HCl, 40° C., 6 hrs, initial pH 4.8) was 0.7068 and the “LD/LDEE HPLC peak ratio” value ([2]; 0.95M LDEE•HCl, 40° C., 6 hrs, initial pH 5) was 1.0212. The “LD/LDEE HPLC peak ratio” value ([2]; 0.95M LDEE•HCl, 40° C., 6 hrs, initial pH 5.3) was 1.6832, the “LD/LDEE HPLC peak ratio” value ([2]; 0.95M LDEE•HCl, 40° C., 6 hrs, initial pH 5.6) was 2.7417 and the “LD/LDEE HPLC peak ratio” value ([2]; 0.95M LDEE•HCl, 40° C., 24 hrs, initial pH 4.2) was 0.7792. The “LD/LDEE HPLC peak ratio” value ([2]; 0.95M LDEE•HCl, 40° C., 24 hrs, initial pH 4.4) was 1.0438, the “LD/LDEE HPLC peak ratio” value ([2]; 0.95M LDEE•HCl, 40° C., 24 hrs, initial pH 4.6) was 1.4684 and the “LD/LDEE HPLC peak ratio” value ([2]; 0.95M LDEE•HCl, 40° C., 24 hrs, initial pH 4.8) was 2.2128. For the same molecule, the “LD/LDEE HPLC peak ratio” value ([2]; 0.95M LDEE•HCl, 40° C., 24 hrs, initial pH 5) was 3.2875, the “LD/LDEE HPLC peak ratio” value ([2]; 0.95M LDEE•HCl, 40° C., 24 hrs, initial pH 5.3) was 5.6263 and the “LD/LDEE HPLC peak ratio” value ([2]; 0.95M LDEE•HCl, 40° C., 24 hrs, initial pH 5.6) was 9.5612. The “LD concentration versus estimated saturation concentration” value ([2]; 0.95 M and 0.48 M, 40° C., 24 hrs, up to about pH 5.5) was “remained below the estimated saturation concentration”, the “% of LDEE.HCl hydrolyzed in the 21 week period, in addition to initial 0.16%” value ([2]; 2.4 M, pH 4.0, about 4° C.) was 1.34% and the “% of LDEE.HCl hydrolyzed in the 21 week period, in addition to initial 0.15%” value ([2]; 2.5 M, pH 3.0, about 4° C.) was 0.36%. For the same molecule, the “% of the LDEE.HCl hydrolyzed to LD” value ([2]; 2.5 M, pH 4.5 citrate, 24 hours at 23±2° C.) was 0.39%, the “concentration of aqueous solutions allowed by solubility” value ([3]; aqueous solution) was “greater than 2.5 M” and the “concentration of clear solution (high solubility)” value ([3]; pH 4.60 (sodium acetate), ambient about 23±2° C.) was “about 2.5 M”. The nodule formation (volunteer) was “nor did it cause the formation of a nodule”.
